Test results taken from patent publication US9273058B2 (BRISTOL-MYERS SQUIBB COMPANY, priority 2013, dated 2016).
Where two headings read alike, the source gives them in different places.

How the values were obtained:
CK1δ = CK1δ (Homo sapiens, UniProt P48730); experiment: CK1δ kinase assay (Caliper LabChip electrophoretic separation of fluoresceinated peptide substrate and product); assay type: biochemical; conditions: 200 pM CK1δ, 50 μM ATP, 1.5 μM peptide, 22 hours at room temperature
Outline: (§1)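 Reactions ran 22 hours at room temperature and were stopped with EDTA. Phosphorylated product and unphosphorylated substrate were then separated electrophoretically. Compounds were tested at eleven concentrations, and IC50 values came from non-linear regression.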

CK1ε = CK1ε (Homo sapiens, UniProt P49674); experiment: CK1ε kinase assay (Caliper LabChip electrophoretic separation of fluoresceinated peptide substrate and product); assay type: biochemical; conditions: 200 pM CK1ε, 50 μM ATP, 1.5 μM peptide, 22 hours at room temperature
Sequence of CK1ε (P49674 whole entry): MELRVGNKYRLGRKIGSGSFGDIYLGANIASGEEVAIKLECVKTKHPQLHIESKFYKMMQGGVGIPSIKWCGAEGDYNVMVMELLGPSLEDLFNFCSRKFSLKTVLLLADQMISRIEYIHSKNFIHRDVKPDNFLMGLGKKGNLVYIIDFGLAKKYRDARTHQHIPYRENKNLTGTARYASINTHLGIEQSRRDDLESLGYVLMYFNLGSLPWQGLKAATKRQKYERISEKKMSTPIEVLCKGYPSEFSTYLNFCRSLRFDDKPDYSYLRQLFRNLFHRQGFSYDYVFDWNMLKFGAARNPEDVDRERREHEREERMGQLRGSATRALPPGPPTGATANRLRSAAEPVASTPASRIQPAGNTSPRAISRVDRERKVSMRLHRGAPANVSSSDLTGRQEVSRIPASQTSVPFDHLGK
Outline: as §1

Sequence of CK1δ (P48730 whole entry): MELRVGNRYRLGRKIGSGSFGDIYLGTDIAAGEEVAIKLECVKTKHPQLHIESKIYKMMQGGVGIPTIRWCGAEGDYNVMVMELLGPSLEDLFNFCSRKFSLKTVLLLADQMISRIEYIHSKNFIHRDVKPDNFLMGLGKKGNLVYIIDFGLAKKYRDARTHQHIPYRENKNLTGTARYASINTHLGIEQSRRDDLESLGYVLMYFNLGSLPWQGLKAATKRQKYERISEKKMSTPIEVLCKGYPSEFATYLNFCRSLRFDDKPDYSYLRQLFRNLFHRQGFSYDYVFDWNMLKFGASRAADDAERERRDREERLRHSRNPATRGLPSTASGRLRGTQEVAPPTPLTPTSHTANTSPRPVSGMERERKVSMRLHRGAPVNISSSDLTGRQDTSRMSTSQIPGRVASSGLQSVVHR

| IC50 (CK1δ; read-out: CK1δ IC50 range) [nM] | IC50 (CK1ε; read-out: CK1ε IC50 range) [nM] | IC50 (CK1δ; read-out: CK1δ) [nM] | IC50 (CK1ε; read-out: CK1ε) [nM] | Structure (SMILES) |
| --- | --- | --- | --- | --- |
| 10 to 100 | 10 to 100 |  |  | NC(=O)c1c(-c2cccc(F)c2)nn2c1CN(C(=O)Nc1cc(F)ccc1F)CC2 [Compound 26, N^5-(2,5-Difluorophenyl)-2-(3-fluorophenyl)-6,7-dihydropyrazolo[1,5-a]pyrazine-3,5(4H)-dicarboxamide] |
| 10 to 100 | 10 to 100 |  |  | NC(=O)c1c(-c2cccc(F)c2)nn2c1CN(C(=O)Nc1cc(F)cc(F)c1F)CC2 [Compound 27, 2-(3-Fluorophenyl)-N^5-(2,3,5-trifluorophenyl)-6,7-dihydropyrazolo[1,5-a]pyrazine-3,5(4H)-dicarboxamide] |
| 10 to 100 | 10 to 100 |  |  | NC(=O)c1c(-c2cccc(F)c2)nn2c1CN(C(=O)Nc1cccc(F)c1F)CC2 [Compound 28, N^5-(2,3-Difluorophenyl)-2-(3-fluorophenyl)-6,7-dihydropyrazolo[1,5-a]pyrazine-3,5(4H)-dicarboxamide] |
| 10 to 100 | 10 to 100 |  |  | NC(=O)c1c(-c2cccc(F)c2)nn2c1CN(C(=O)Nc1ccc(F)cc1F)CC2 [Compound 30, N^5-(2,4-Difluorophenyl)-2-(3-fluorophenyl)-6,7-dihydropyrazolo[1,5-a]pyrazine-3,5(4H)-dicarboxamide] |
| 10 to 100 | 10 to 100 |  |  | NC(=O)c1c(-c2cccc(F)c2)nn2c1CN(C(=O)Nc1ccc(F)cc1Cl)CC2 [Compound 32, N^5-(2-Chloro-4-fluorophenyl)-2-(3-fluorophenyl)-6,7-dihydropyrazolo[1,5-a]pyrazine-3,5(4H)-dicarboxamide] |
| 10 to 100 | 100 to 2000 |  |  | NC(=O)c1c(-c2cccc(F)c2)nn2c1CN(C(=O)Nc1c(F)cc(F)cc1F)CC2 [Compound 40, 2-(3-Fluorophenyl)-N^5-(2,4,6-trifluorophenyl)-6,7-dihydropyrazolo[1,5-a]pyrazine-3,5(4H)dicarboxamide] |
| 10 to 100 | 100 to 2000 |  |  | NC(=O)c1c(-c2cccc(F)c2)nn2c1CN(C(=O)NCCc1ccc(F)cc1)CC2 [Compound 42, N^5-(4-Fluorophenethyl)-2-(3-fluorophenyl)-6,7-dihydropyrazolo[1,5-a]pyrazine-3,5(4H)-dicarboxamide] |
| 10 to 100 | 10 to 100 |  |  | NC(=O)c1c(-c2cccc(F)c2)nn2c1CN(C(=O)Nc1ccc(Cl)cc1Cl)CC2 [Compound 43, N^5-(2,4-Dichlorophenyl)-2-(3-fluorophenyl)-6,7-dihydropyrazolo[1,5-a]pyrazine-3,5(4H)-dicarboxamide] |
| 10 to 100 | 100 to 2000 |  |  | COc1ccc(CCNC(=O)N2CCn3nc(-c4cccc(F)c4)c(C(N)=O)c3C2)cc1 [Compound 47, 2-(3-Fluorophenyl)-N^5-(4-methoxyphenethyl)-6,7-dihydropyrazolo[1,5-a]pyrazine-3,5(4H)-dicarboxamide] |
| 10 to 100 | 100 to 2000 |  |  | NC(=O)c1c(-c2cccc(F)c2)nn2c1CN(C(=O)Nc1ccccc1C(F)(F)F)CC2 [Compound 48, 2-(3-Fluorophenyl)-N^5-(2-(trifluoromethyl)phenyl)-6,7-dihydropyrazolo[1,5-a]pyrazine-3,5(4H)-dicarboxamide] |
| 10 to 100 | 10 to 100 |  |  | NC(=O)c1c(-c2cccc(F)c2)nn2c1CN(C(=O)Nc1cccc3ccccc13)CC2 [Compound 52, 2-(3-Fluorophenyl)-N^5-(naphthalen-1-yl)-6,7-dihydropyrazolo[1,5-a]pyrazine-3,5(4H)-dicarboxamide] |
| 0.01 to 10 | 0.01 to 10 |  |  | N#Cc1cccc(NC(=O)N2CCn3nc(-c4cccc(F)c4)c(C(N)=O)c3C2)c1 [Compound 54, N^5-(3-Cyanophenyl)-2-(3-fluorophenyl)-6,7-dihydropyrazolo[1,5-a]pyrazine-3,5(4H)-dicarboxamide] |
| 10 to 100 | 100 to 2000 |  |  | NC(=O)c1c(-c2cccc(F)c2)nn2c1CN(C(=O)Nc1ccc(Cl)cc1C(F)(F)F)CC2 [Compound 57, N^5-(4-Chloro-2-(trifluoromethyl)phenyl)-2-(3-fluorophenyl)-6,7-dihydropyrazolo[1,5-a]pyrazine-3,5(4H)-dicarboxamide] |
| 0.01 to 10 | 0.01 to 10 | 2.6 | 5 | N#Cc1ccc(NC(=O)N2CCn3nc(-c4cccc(F)c4)c(C(N)=O)c3C2)cc1 [Compound 61, N^5-(4-Cyanophenyl)-2-(3-fluorophenyl)-6,7-dihydropyrazolo[1,5-a]pyrazine-3,5(4H)-dicarboxamide] |
| 100 to 2000 | 100 to 2000 |  |  | NC(=O)c1c(-c2cccc(F)c2)nn2c1CN(C(=O)Nc1c(Cl)cccc1C(F)(F)F)CC2 [Compound 65, N^5-(2-Chloro-6-(trifluoromethyl)phenyl)-2-(3-fluorophenyl)-6,7-dihydropyrazolo[1,5-a]pyrazine-3,5(4H)-dicarboxamide] |
| 10 to 100 | 10 to 100 |  |  | COc1cc(NC(=O)N2CCn3nc(-c4cccc(F)c4)c(C(N)=O)c3C2)ncn1 [Compound 75, 2-(3-Fluorophenyl)-N^5-(6-methoxypyrimidin-4-yl)-6,7-dihydropyrazolo[1,5-a]pyrazine-3,5(4H)-dicarboxamide] |
| 100 to 2000 | 10 to 100 |  |  | Cc1ccc(NC(=O)N2CCn3nc(-c4cccc(F)c4)c(C(N)=O)c3C2)nn1 [Compound 83, 2-(3-Fluorophenyl)-N^5-(6-methylpyridazin-3-yl)-6,7-dihydropyrazolo[1,5-a]pyrazine-3,5(4H)-dicarboxamide] |
| 10 to 100 | 10 to 100 |  |  | NC(=O)c1c(-c2cccc(F)c2)nn2c1CN(C(=O)Nc1ccc(O)nc1)CC2 [Compound 88, 2-(3-Fluorophenyl)-N^5-(6-hydroxypyridin-3-yl)-6,7-dihydropyrazolo[1,5-a]pyrazine-3,5(4H)-dicarboxamide] |
| 10 to 100 | 100 to 2000 |  |  | NC(=O)c1c(-c2cccc(F)c2)nn2c1CN(C(=O)Nc1cccnn1)CC2 [Compound 91, 2-(3-Fluorophenyl)-N^5-(pyridazin-3-yl)-6,7-dihydropyrazolo[1,5-a]pyrazine-3,5(4H)-dicarboxamide] |
| 100 to 2000 | 100 to 2000 | 446 |  | NC(=O)c1c(-c2cccc(F)c2)nn2c1CN(C(=O)Nc1ccncc1)CC2 [Compound 92, 2-(3-Fluorophenyl)-N^5-(pyridin-4-yl)-6,7-dihydropyrazolo[1,5-a]pyrazine-3,5(4H)-dicarboxamide] |
| 0.01 to 10 | 0.01 to 10 |  |  | CS(=O)(=O)c1cccc(NC(=O)N2CCn3nc(-c4cccc(F)c4)c(C(N)=O)c3C2)c1 [Compound 93, 2-(3-Fluorophenyl)-N^5-(3-(methylsulfonyl)phenyl)-6,7-dihydropyrazolo[1,5-a]pyrazine-3,5(4H)-dicarboxamide] |
| 10 to 100 | 10 to 100 |  |  | Cn1nccc1NC(=O)N1CCn2nc(-c3cccc(F)c3)c(C(N)=O)c2C1 [Compound 96, 2-(3-Fluorophenyl)-N^5-(1-methyl-1H-pyrazol-5-yl)-6,7-dihydropyrazolo[1,5-a]pyrazine-3,5(4H)-dicarboxamide] |
|  | 100 to 2000 | 70.6 | 541 | NC(=O)c1c(-c2cccc(F)c2)nn2c1CN(C(=O)NC1CCN(CCC(F)(F)F)CC1)CC2 [Compound 103, 2-(3-Fluorophenyl)-N^5-(1-(3,3,3-trifluoropropyl)piperidin-4-yl)-6,7-dihydropyrazolo[1,5-a]pyrazine-3,5(4H)-dicarboxamide] |
| 0.01 to 10 | 0.01 to 10 | 0.7 | 1.3 | CC(C)(C)NC(=O)N1CCn2nc(-c3ccc(F)c(Cl)c3)c(C(N)=O)c2C1 [Compound 104] |
| 0.01 to 10 | 10 to 100 | 8.7 | 29.3 | CC(C)(C)NC(=O)N1CCn2nc(-c3ccc(F)c(F)c3)c(C(N)=O)c2C1 [Compound 106, N^5-(tert-Butyl)-2-(3,4-difluorophenyl)-6,7-dihydropyrazolo[1,5-a] pyrazine-3,5(4H)-dicarboxamide] |
| 10 to 100 | 100 to 2000 | 105 | 400 | CC(C)(C)NC(=O)N1CCn2nc(-c3ccccc3F)c(C(N)=O)c2C1 [Compound 107, N^5-(tert-Butyl)-2-(2-fluorophenyl)-6,7-dihydropyrazolo[1,5-a] pyrazine-3,5(4H)-dicarboxamide] |
| 0.01 to 10 | 0.01 to 10 | 0.9 | 2.4 | CC(C)(C)NC(=O)N1CCn2nc(-c3cccc(Cl)c3)c(C(N)=O)c2C1 [Compound 108, N^5-(tert-Butyl)-2-(3-chlorophenyl)-6,7-dihydropyrazolo[1,5-a] pyrazine-3,5(4H)-dicarboxamide] |
| 10 to 100 | 100 to 2000 | 83.9 | 156 | CC(C)(C)NC(=O)N1CCn2nc(-c3cccc(C(F)(F)F)c3)c(C(N)=O)c2C1 [Compound 110, N^5-(tert-Butyl)-2-(3-(trifluoromethyl)phenyl)-6,7-dihydropyrazolo[1,5-a] pyrazine-3,5(4H)-dicarboxamide] |
| 100 to 2000 | 100 to 2000 |  |  | CC(C)(C)NC(=O)N1CCn2nc(-c3cccnc3)c(C(N)=O)c2C1 [Compound 111, N^5-(tert-Butyl)-2-(pyridin-3-yl)-6,7-dihydropyrazolo[1,5-a]pyrazine-3,5(4H)-dicarboxamide] |
| 10 to 100 | 100 to 2000 |  |  | CC(C)(C)NC(=O)N1CCn2nc(-c3ccnc(F)c3)c(C(N)=O)c2C1 [Compound 112, N^5-(tert-Butyl)-2-(2-fluoropyridin-4-yl)-6,7-dihydropyrazolo[1,5-a] pyrazine-3,5(4H)-dicarboxamide] |
